In one experiment the target is Prothrombin (Homo sapiens, UniProt P00734). Briefly: Inhibition of thrombin.
The next experiment concerns the target Plasminogen (Homo sapiens, UniProt P00747). Briefly: Inhibition of plasmin.
Experiment [1] can be described thus: Inhibition of trypsin.

pIC50: −log10 of the molar value. ≈ marks a conversion by molar mass, not a printed value.

Plasminogen, sequence (P00747 97-580 limits assumed): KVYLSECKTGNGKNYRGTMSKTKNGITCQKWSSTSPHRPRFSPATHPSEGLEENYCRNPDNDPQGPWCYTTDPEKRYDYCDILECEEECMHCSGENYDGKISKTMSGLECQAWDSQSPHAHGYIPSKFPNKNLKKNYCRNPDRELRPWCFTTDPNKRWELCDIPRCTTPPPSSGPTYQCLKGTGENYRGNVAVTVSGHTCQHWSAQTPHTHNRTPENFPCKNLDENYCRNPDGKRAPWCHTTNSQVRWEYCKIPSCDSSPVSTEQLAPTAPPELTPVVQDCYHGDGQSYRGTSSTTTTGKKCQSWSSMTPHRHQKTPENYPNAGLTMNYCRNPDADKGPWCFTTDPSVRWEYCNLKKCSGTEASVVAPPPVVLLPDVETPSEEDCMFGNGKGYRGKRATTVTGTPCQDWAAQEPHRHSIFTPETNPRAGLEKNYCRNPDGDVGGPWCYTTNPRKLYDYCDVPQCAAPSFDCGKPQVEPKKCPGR
Plasminogen, sequence (P00747 581-810 limits assumed): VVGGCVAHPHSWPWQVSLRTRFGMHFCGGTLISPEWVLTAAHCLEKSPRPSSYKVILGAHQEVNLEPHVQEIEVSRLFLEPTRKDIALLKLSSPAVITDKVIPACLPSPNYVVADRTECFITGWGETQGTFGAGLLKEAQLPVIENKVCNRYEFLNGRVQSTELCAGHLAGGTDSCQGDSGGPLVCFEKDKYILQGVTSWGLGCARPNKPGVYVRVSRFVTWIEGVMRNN

The pIC50 is the IC50 on a negative log10 scale, so that one unit is a factor of ten. A higher pIC50 goes with a low IC50. In general, IC50 refers to the midpoint of a concentration-inhibition curve. Read a high IC50 as a need for much substance. Consider `CCO[C@@H]1[C@@H](NC(=O)C2CC3CCC(O)CC3N2C(=O)[C@@H](Cc2ccc(O)cc2)NC(=O)[C@H](O)Cc2ccc(O)cc2)CCCN1C(=N)N` (stereo partly drawn), for which the pIC50 against Prothrombin is 4.88; against Plasminogen it was 4.00. Also, the IC50 in experiment [1] was 51 µg/mL (≈ 74.9 µM).
